From patent US12630505B2, “Alkyne compound, vitamin D compound, analytical method, and production method” (Tokyo University of Agriculture and Technology, priority 2021, dated 2026)

Assays:
[1] = tested on: Antibody column: 1,25-(OH)2-vitamin D3/D2 Immuno Tube Extraction Kit; test: Antibody column fractionation of pooled serum, LC-MS/MS of adsorbed and non-adsorbed fractions; format: binding; conditions: SRM chromatograms FIG. 5B/5C
Method: (4) Sample Pretreatment • (4-1) In a microtube, 200 μL of a calibrator or a pooled serum, 180 μL of IS, and 20 μL of additives were placed, and the whole was stirred to prepare a sample. To the calibrator, 10 μL of an aqueous 1α,25-(OH)2D3 solution (1 ng/mL) and 10 μL of an aqueous 1α,25-(OH)2D3-^13C3 solution (1 ng/mL) were added as the additives. To the pooled serum, 10 μL of an aqueous 1α,25-(OH)2D3-^13C3 solution (1 ng/mL) and 10 μL of water were added. • (4-2) The sample was loaded on an antibody column, and the column sealed with a cap was gently shaken. • (4-3) The sample was rotated and mixed at room temperature for 1 hour with a rotator to be subjected to antigen-antibody reaction. • (4-4) The outlet of the antibody column was released, and the column was centrifuged at 550 g for 2 minutes to collect a non-adsorbed fraction. • (4-5) Into the column, 500 μL of WASHSOL supplied with the antibody column kit was added, and the column was centrifuged at 550 g for 2 minutes. […]

[2] = tested on: Antibody column: 1,25-(OH)2-vitamin D3/D2 Immuno Tube Extraction Kit; test: Separation measurement of 4β,25-(OH)2D3: antibody column fractionation of spiked vitamin D free serum, LC-MS/MS of fractions; format: binding; conditions: vitamin D free serum with 4β,25-(OH)2D3 at 50 pg/mL; SRM chromatograms FIG. 4A/4B
Description: • Standard: 4β,25-(OH)2D3 (vitamin D compound 54 produced in Example 1) • Stable isotope-labeled compound: 4β,25-(OH)2D3-d4 (vitamin D compound 52 produced in Example 1) • Vitamin D free serum: MSG1000 (Golden West Biologicals) • Antibody column: 1,25-(OH)2-vitamin D3/D2 Immuno Tube (trademark) Extraction Kit (Immunodiagnostik) • SLE column: Isolute SLE+ column (Biotage) • Derivatization reagent (DAP-PA): JeoQuant Kit for LC-MS/MS Analysis of Vitamin D Metabolites (JEOL) (2) IS (Internal Standard) Solution
An aqueous 4β,25-(OH)2D3-d4 solution was prepared at the concentration shown below.
(3) Sample Pretreatment • (3-1) In a microtube, 200 μL of a vitamin D free serum prepared to have a 4β,25-(OH)2D3 concentration of 50 pg/mL and 30 μL of IS were placed to prepare a sample. • (3-2) The sample was loaded on an antibody column, and the column sealed with a cap was gently shaken. • (3-3) The sample was rotated and mixed at room temperature for 1 hour with a rotator to be subjected to antigen-antibody reaction. • (3-4) The outlet of the antibody column was released, and the column was centrifuged at 550 g for 2 minutes to collect a non-adsorbed fraction. • (3-5) Into the column, 500 μL of WASHSOL supplied with the antibody column kit was added, and the column was centrifuged at 550 g for 2 minutes. […]

Row | SMILES | Fraction of the antibody column in which the compound was collected [1] | Fraction of the antibody column that contains the compound [2]
1 | C=C1/C(=C\C=C2/CCC[C@]3(C)[C@@H]([C@H](C)CCCC(C)(C)O)CC[C@@H]23)C[C@@H](O)C[C@@H]1O [1α,25(OH)2D3, 1α,25-dihydroxyvitamin D3] | collected in the adsorbed fraction | –
2 | C=C1CC[C@H](O)[C@H](O)/C1=C/C=C1\CCC[C@]2(C)[C@@H]([C@H](C)CCCC(C)(C)O)CC[C@@H]12 [4β,25-(OH)2D3, 4β,25-dihydroxyvitamin D3] | collected in the non-adsorbed fraction | only in the non-adsorbed fraction
